Among the test systems are EKVX NSCLC; DU-145 prostate; NCI-H23 lung; OVCAR-3 ovarian; 786-0 renal; SK-MEL-5 melanoma; IGROV1 ovarian; RPMI-8226 leukemia; NCI-H460 lung; CCRF-CEM leukemia.
Assay in all cases: NCI tumour cell line growth inhibition, 48 h

Where “and” joins values, the source holds several entries; their conditions need not be identical. Equal entries are not always repeated.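 These data come from cells grown in 96-well plates and exposed to compound for 48 hours at five concentrations. GI50: concentration for 50% inhibition of growth. At the TGI there is no net growth.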

Consider `Cc1cc(=O)oc2ccc(OC/C=C3\CCC(=O)O3)cc12`, for which the GI50 in the assay on EKVX NSCLC was 18.7 µM; with DU-145 prostate it was 3.62 µM; with NCI-H23 lung, 10.4 µM; in the assay on OVCAR-3 ovarian, 3.59 µM; in the assay with 786-0 renal, 2.7 µM; in the assay with SK-MEL-5 melanoma, 16.4 µM. Also, the GI50 with IGROV1 ovarian was 3.3 µM; in the assay on RPMI-8226 leukemia, 1.81 µM; in the assay on NCI-H460 lung it was 17.3 µM; in the assay with CCRF-CEM leukemia it was 2.61 µM. The TGI in the assay on EKVX NSCLC was found to be 45.6 µM; with DU-145 prostate, 17.7 µM; with NCI-H23 lung, 25.2 µM; in the assay on OVCAR-3 ovarian it was 18.4 µM; in the assay on 786-0 renal it was 14.2 µM; in the assay on SK-MEL-5 melanoma, 32.5 µM. Further, the TGI in the assay with IGROV1 ovarian is 16.4 µM; with RPMI-8226 leukemia it was 11.2 µM; in the assay with NCI-H460 lung it was 43 µM; with CCRF-CEM leukemia, 7.96 µM.

Turning to `O=C1Nc2ccc(Cl)cc2/C1=C\c1c(-c2ccc(Cl)cc2)nc2sc(C3CC3)nn12`, the GI50 in the assay on DU-145 prostate is 5.73 µM; in the assay with NCI-H23 lung, 4.39 µM; in the assay on OVCAR-3 ovarian, 4.16 µM; in the assay with 786-0 renal it was 4.68 µM; in the assay on SK-MEL-5 melanoma, 3.2 µM; in the assay with IGROV1 ovarian, 4.12 µM. The GI50 in the assay with RPMI-8226 leukemia was 18.1 µM; in the assay on NCI-H460 lung it was 3.89 µM; with CCRF-CEM leukemia, 19.8 µM. The TGI came to 17.6 µM in the assay with DU-145 prostate; 17.6 µM in the assay with NCI-H23 lung; 15.2 µM in the assay with OVCAR-3 ovarian; 18.8 µM in the assay with 786-0 renal; 13 µM in the assay with SK-MEL-5 melanoma; 15.8 µM with IGROV1 ovarian. For the same compound, the values for the TGI in the assay with RPMI-8226 leukemia, in the assay on NCI-H460 lung and with CCRF-CEM leukemia were above 100 µM, 14.1 µM and above 100 µM, respectively.

Consider `Cc1ccc(CNc2ccc(Br)cc2)cc1`, for which the TGI with EKVX NSCLC was above 100 µM; in the assay on DU-145 prostate, above 100 µM; in the assay on NCI-H23 lung, above 100 µM; in the assay on OVCAR-3 ovarian, above 100 µM; with 786-0 renal it was above 100 µM; in the assay on SK-MEL-5 melanoma it was 30.8 µM. The values for the TGI in the assay with RPMI-8226 leukemia, in the assay with NCI-H460 lung and with CCRF-CEM leukemia were 17.5 µM, above 100 µM and 78.4 µM, respectively.

Turning to `COc1cccc2c1-c1nc(N)c3c(OC)cccc3c1C2=O`, the TGI in the assay on EKVX NSCLC, with DU-145 prostate, with NCI-H23 lung, in the assay on OVCAR-3 ovarian, in the assay with 786-0 renal and in the assay on SK-MEL-5 melanoma was above 100 µM each time. Also, the TGI in the assay on IGROV1 ovarian, in the assay with RPMI-8226 leukemia and in the assay on CCRF-CEM leukemia was above 100 µM throughout.

With `COc1cccc(/C=C/C(=O)c2ccc3cc(OC)ccc3c2)c1`, the GI50 with EKVX NSCLC was 13 µM; in the assay with DU-145 prostate, 8.54 µM; in the assay on NCI-H23 lung, 11.6 µM; in the assay on OVCAR-3 ovarian it was 9.67 µM; with 786-0 renal, 10.9 µM; in the assay on SK-MEL-5 melanoma, 9.21 µM. In addition, the GI50 with IGROV1 ovarian was 4.05 µM; in the assay with RPMI-8226 leukemia, 10.8 µM; with NCI-H460 lung, 25.2 µM. For the same compound, the TGI turned out to be 40.8 µM in the assay on EKVX NSCLC; 17.5 µM in the assay on DU-145 prostate; 21 µM in the assay on NCI-H23 lung; 22.8 µM in the assay on OVCAR-3 ovarian; 19.2 µM in the assay with 786-0 renal; 18.2 µM in the assay on SK-MEL-5 melanoma. Besides, the TGI is 21.7 µM in the assay with IGROV1 ovarian, 34.8 µM with RPMI-8226 leukemia and above 50 µM in the assay on NCI-H460 lung.

Regarding `O=C1Nc2ccc(Br)cc2C12CC(c1ccccc1)=NN2` (stereo unspecified), the GI50 with DU-145 prostate is 3.35 µM; in the assay with NCI-H23 lung it was 5.43 µM; with OVCAR-3 ovarian, 3.26 µM; in the assay on 786-0 renal, 5.66 µM; with SK-MEL-5 melanoma it was 3.2 µM; with IGROV1 ovarian it was 3.51 µM. Besides, the values for the GI50 in the assay on RPMI-8226 leukemia, with NCI-H460 lung and with CCRF-CEM leukemia were 3.07 µM, 3.76 µM and 3.67 µM, respectively. Also, the TGI in the assay with DU-145 prostate came out at 16.4 µM; in the assay on NCI-H23 lung it was 77.2 µM; with OVCAR-3 ovarian it was 13.9 µM; with 786-0 renal, 48.5 µM; in the assay with SK-MEL-5 melanoma, 14.1 µM; with IGROV1 ovarian, 29.3 µM. Besides, the TGI in the assay with RPMI-8226 leukemia was found to be 12.2 µM; with NCI-H460 lung, 19.4 µM; in the assay on CCRF-CEM leukemia, 37.7 µM.

On to `COC1=C(N)C(=O)c2nc(-c3nc(C(=O)O)c(C)c(-c4ccc(OC)c(OC)c4O)c3N)ccc2C1=O`, for which the GI50 in the assay with EKVX NSCLC is 0.00938 µM and 0.0215 µM; in the assay with OVCAR-3 ovarian, 0.0283 µM and 0.0169 µM; in the assay on SK-MEL-5 melanoma it was 0.00116 µM and 0.0104 µM; in the assay with IGROV1 ovarian, 0.00237 µM and 0.0223 µM and 0.0183 µM; with RPMI-8226 leukemia, 0.00215 µM and 0.00924 µM and < 0.01 µM; in the assay with CCRF-CEM leukemia it was 0.0206 µM and 0.00386 µM. Further, the TGI in the assay with EKVX NSCLC is 0.0349 µM and 0.0896 µM; in the assay on DU-145 prostate, 0.0409 µM and 0.0193 µM; in the assay with OVCAR-3 ovarian, 0.0395 µM; in the assay on 786-0 renal it was 0.00261 µM and 0.0217 µM and < 0.01 µM; in the assay with IGROV1 ovarian, 0.0196 µM and 0.125 µM and 0.0589 µM; in the assay on RPMI-8226 leukemia, 0.00647 µM and 0.0298 µM and 0.0225 µM. Moreover, the TGI with CCRF-CEM leukemia was 0.0398 µM and 0.0286 µM.

In the case of `CSc1ccc(C2=C(c3ccccc3)C(=O)OC2)cc1`, the GI50 with EKVX NSCLC was 5.76 µM; in the assay on DU-145 prostate it was 4.49 µM; in the assay on NCI-H23 lung it was 3.78 µM; in the assay on OVCAR-3 ovarian, 0.188 µM; in the assay with 786-0 renal, 1.21 µM; with SK-MEL-5 melanoma, 0.732 µM. The GI50 with IGROV1 ovarian was 2.18 µM; with NCI-H460 lung, 1.29 µM; in the assay with CCRF-CEM leukemia it was 0.508 µM. Besides, the TGI in the assay with EKVX NSCLC was above 100 µM; with DU-145 prostate, above 100 µM; with NCI-H23 lung, above 41.1 µM; with OVCAR-3 ovarian it was 0.568 µM; in the assay on 786-0 renal it was 19.7 µM; in the assay on SK-MEL-5 melanoma, 3.56 µM. The TGI with IGROV1 ovarian is above 63.9 µM; in the assay on NCI-H460 lung, above 34.8 µM; with CCRF-CEM leukemia it was 2.85 µM.

With `COc1ccc(-c2cc(=O)c3c(O)c(OC)c(OC)c(OC)c3o2)cc1OC`, the TGI with EKVX NSCLC, in the assay with DU-145 prostate, with NCI-H23 lung, in the assay on OVCAR-3 ovarian, with 786-0 renal and in the assay on SK-MEL-5 melanoma was above 100 µM in each case. The TGI with IGROV1 ovarian and in the assay with CCRF-CEM leukemia was above 100 µM in each case.

Values taken from PubChem BioAssay (NCI).
